Several values for one entry are separate records, joined by “and”; a condition that tells them apart may be missing. Equal entries are not always repeated.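 Dose response: 5 concentrations. Exposure: 48 h. Format: 96-well plates. Endpoint: linear interpolation; highest concentration if not reached. GI50: concentration for 50% inhibition of growth. TGI denotes the concentration required for complete inhibition of growth.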
What was measured:
Test in all cases: inhibition of tumour cell growth, NCI panel, 48 h
[1] = system: 786-0 renal
[2] = system: UACC-257 melanoma
[3] = system: NCI/ADR-RES ovarian
[4] = system: OVCAR-4 ovarian
[5] = system: HL-60(TB) leukemia
[6] = system: SF-295 CNS
[7] = system: NCI-H522 lung
[8] = system: OVCAR-5 ovarian
[9] = system: EKVX NSCLC
[10] = system: RPMI-8226 leukemia

SMILES | GI50 [1] [µM] | TGI [1] | GI50 [2] [µM] | TGI [2] | GI50 [3] [µM] | TGI [3] | GI50 [4] [µM] | TGI [4] | GI50 [5] [µM] | TGI [5] | GI50 [6] [µM] | TGI [6] | GI50 [7] | TGI [7] | GI50 [8] | TGI [8] | GI50 [9] [µM] | TGI [9] | GI50 [10] | TGI [10]
Cc1cc(S(=O)(=O)Nc2nc3ccsc3c(=O)n2Cc2ccccc2)c(S)cc1Cl | 32.2 | > 100 µM | 47.8 | > 100 µM | 67.8 | > 100 µM | 44 | > 100 µM | > 100 | > 100 µM | 26.8 | 98.7 µM | 37 µM | > 100 µM | 32.9 µM | 97.5 µM | 21.8 | 77.3 µM | 33.4 µM | > 100 µM
C#CCOc1cccc(Nc2ncnc3c2ncn3C2CCN(C(=O)CCl)C2)c1 (stereo unspecified) | 18.9 | 36.8 µM | 26.3 | 79.2 µM | 41.3 | > 100 µM | 19.4 | 45 µM | 19.4 | 41.8 µM | > 100 | > 100 µM | 5.02 µM | 19.7 µM | 16.8 µM | 31.6 µM | 26.1 | 74.2 µM | 21 µM | 44.2 µM
CC(C)c1ccc(O)c(O)c(=O)c1 (tested in a mixture with another compound) |  | > 100 µM |  | 2.03 µM |  | > 36.9 µM |  | > 100 µM |  | 2.39 µM |  | > 100 µM |  | 17.5 µM |  | > 100 µM |  | 47.7 µM |  | 9.79 µM
O=C(Nc1ccc([N+](=O)[O-])cc1)c1cc2ccccc2cc1O | 0.399 | 1.91 µM | 0.313 | 1.48 µM | 0.314 | 3.13 µM | 0.322 | > 100 µM | 0.235 | 0.909 µM | 1.15 | 3.17 µM | 0.268 µM | 1.61 µM | 1.73 µM | 48.2 µM | 0.322 | 3 µM | 0.291 µM | 0.727 µM
CN1CCN(c2ccc([N+](=O)[O-])c3no[n+]([O-])c23)CC1 | 0.298 | 0.923 µM and 1.15 µM | 0.472 | 2.69 µM and 1.6 µM | 0.286 | 2.46 µM and 1.47 µM | 0.444 | 2.54 µM and 1.8 µM | 0.0322 | 0.157 µM and 0.155 µM | 0.292 | 1.82 µM and 1.59 µM | 0.115 µM | 0.507 µM and 0.26 µM | 1.49 µM | 4.25 µM and 3.27 µM |  | 2.83 µM and 2.92 µM | 0.436 µM | 0.795 µM and 2.43 µM
CCOC(=O)c1cn2ncnc(Oc3ccc(NC(=O)NCCN(CC)CC)c(Cl)c3)c2c1C | 1.89 | 3.75 µM | 1.89 | 4.05 µM | 4.26 | 64.5 µM | 12.2 | 45.5 µM | 1.81 | 4.07 µM | 2.14 | 4.71 µM | 2.3 µM | 5.92 µM | 3.97 µM | 16.1 µM | 3.79 | 21.5 µM | 1.73 µM | 3.92 µM
O=C1/C(=C/c2ccc(C(F)(F)F)cc2)COc2ccc(O)cc21 | 1.91 | 4.17 µM | 8.06 | 20.9 µM | 2.15 | 6.42 µM | 3.4 | 13 µM | 1.27 | 4.35 µM | 12.1 | 24.9 µM | 1.59 µM | 3.69 µM | 2.18 µM | 5.49 µM | 10.7 | 22.5 µM | 0.29 µM | 0.885 µM
O=C(Nn1c2c(sc1=NC1CC1)C(=O)c1ccccc1C2=O)c1cc2ccc1CCc1ccc(cc1)CC2 | 2.75 | 7.93 µM | 1.69 | 3.41 µM | 1.93 | 6.77 µM | 1.61 | 4.58 µM | 2.18 | 6.26 µM | 3.55 | 12.7 µM | 1.6 µM | 4.69 µM | 1.83 µM | 3.53 µM | 1.87 | 12.5 µM | 1.86 µM | 6.47 µM
CO[C@@]12[C@H](COC(N)=O)C3=C(C(=O)C(C)=C(N)C3=O)N1C[C@@H]1N[C@@H]12 | 0.717 | 4.99 µM and 10.2 µM and 4.74 µM | 2.16 | 5.17 µM and 7.79 µM and 11.2 µM | 3.83 | 20 µM and 21.4 µM and > 100 µM | 4.65 | 10.5 µM and 10.1 µM and 42.8 µM | 0.126 |  |  |  | 1.1 µM and 1.18 µM | 3.85 µM and 4.17 µM and 8.07 µM | 2.69 µM and 1.65 µM | 9.29 µM and 10.5 µM and 14 µM | 7.98 | 17.1 µM and 20.8 µM and 31.7 µM | 2.03 µM and 1.88 µM | 19.2 µM and 14.2 µM and 15.5 µM
C=C(CN(CCN1CCOCC1)CC(=C)c1ccc(C(=O)Nc2ccccc2N)cc1)c1ccc(C(=O)Nc2ccccc2N)cc1 | 1.07 | 6.65 µM | 3.68 | 13.5 µM | 1.31 | 4.92 µM | 10.5 | > 50 µM | 13 | > 50 µM | 8.46 | 19.9 µM | 2.62 µM | 28.9 µM | 7.62 µM | 15.2 µM | 14 | > 50 µM | 2.68 µM | > 50 µM
CCCCCCCCCCC(CN(CC)CC)C(O)c1ccccc1 (stereo unspecified) | 1.67 | 3.15 µM | 2.64 | 5.78 µM | 1.9 | 3.7 µM | 1.63 | 3.45 µM | 2.13 | 5.04 µM | 1.84 | 3.48 µM | 1.83 µM | 3.8 µM | 1.78 µM | 3.49 µM | 1.56 | 3.74 µM | 2.05 µM | 4.88 µM
c1cc(-c2cnn3nc(N4CCOCC4)ccc23)nc(NC2CC2)n1 | 8.9 | > 25 µM | 7.54 | > 25 µM | 8.25 | > 25 µM | 14.9 | > 25 µM | 7.5 | 18.9 µM | 8.72 | > 25 µM | 13.5 µM | > 25 µM | 6.64 µM | > 22.4 µM | 10.5 | > 25 µM | 6.71 µM | > 25 µM
COc1ccc(Cn2cc3c(c2-c2ccccc2)CCc2cncnc2-3)cc1 | 10.1 | 38.5 µM | 4.03 | 16.7 µM | 3.99 | 19.8 µM | 10.2 | 33.7 µM | 2.04 | 5.7 µM | 4.02 | 17.8 µM | 5.05 µM | 21 µM | 18.4 µM | 37.7 µM | 4.5 | 29.3 µM | 2.69 µM | 8.62 µM

Reference: PubChem BioAssay (NCI)
